Read-outs that look alike come from different tables or passages of the source.

As a reminder, the IC50 is the midpoint of a concentration-inhibition curve.

Test [1] concerns MOLM-13 (carrying MLL-AF9). Briefly: Inhibition of proliferation of human tumor cells (Alamar Blue, 7 days), MOLM-13. It is filed as cell-based. As to conditions: Homo sapiens, MOLM-13 cells (carrying MLL-AF9), method calls the value GI50. From the text:
Experimental Example 2: Evaluation of Inhibitory Activity of Compounds Against Proliferation of Human Tumor Cells
• Human acute lymphoblastic leukemia cells MV-4-11, purchased from American Type Culture Collection, Catalog Number: CRL-9591; • Human acute myeloid leukemia cells MOLM-13, purchased from COBIOER BIOSCIENCES CO., LTD, Catalog Number: CBP60678; • Human acute myeloid leukemia cells KG-1a, purchased from American Type Culture Collection, Catalog Number: CCL-246.1; • Inverted Microscope, purchased from Olympus Tokyo; • Countess™ Automated Cell Counter, purchased from Invitrogen, Model: C10281; and • Multilabel Reader, purchased from Bio-Tek, Model: Synergy HT.
MV-4-11 cells were cultured in an IMDM medium containing 10% fetal bovine serum, KG-a cells were cultured in an IMDM medium containing 20% fetal bovine serum, or MOLM-13 cells were cultured in an RPMI-1640 medium containing 20% fetal bovine serum, each supplemented with 100 U·mL^-1 penicillin and 100 µg·mL^-1 streptomycin. These cells were cultured at 37°C with 5% CO2. The suspensions of individual cell lines were prepared in their respective media and seeded into 96-well plates at a density of 4,000 cells/well for MV-4-11 and MOLM-13 cells, or 3,000 cells/well for KG-1a cells. On the day of the experiment, a compound stock solution was diluted in a 3-fold or 4-fold gradient using DMSO. Each gradient-diluted stock solution was then further diluted 250-fold with a complete medium to prepare a series of working solutions at different concentrations. Subsequently, 100 µL of working solution (containing a 2-fold concentration series of the test compound) was added to each well, with duplicate wells set up for each concentration.
Seven days after compound addition (on Day 7), an Alamar Blue assay reagent (MCE, HY-111391 / CS-0040317) was added to measure the fluorescence intensity in each well. Wells containing the cells in the growth medium supplemented with 0.1% DMSO (Day 7) served as high-read control wells. The readouts from the wells containing the cells in the growth medium supplemented with 0.1% DMSO on the day of compound addition (Day 0) served as low-reading control well. GraphPad Prism software was used to calculate the concentration required to inhibit 50% of cell proliferation (GI50), which serves as a cell proliferation inhibition activity index.
(In general: Alamar Blue is a resazurin reagent that responds to reducing activity.)

Another test deals with T1, Menin-MLL (Homo sapiens, UniProt O00255).
T1 construct: His-Menin (M1-L615 end); purchased BIORTUS BP9210
T1 sequence (O00255 1-615 isoform O00255-1): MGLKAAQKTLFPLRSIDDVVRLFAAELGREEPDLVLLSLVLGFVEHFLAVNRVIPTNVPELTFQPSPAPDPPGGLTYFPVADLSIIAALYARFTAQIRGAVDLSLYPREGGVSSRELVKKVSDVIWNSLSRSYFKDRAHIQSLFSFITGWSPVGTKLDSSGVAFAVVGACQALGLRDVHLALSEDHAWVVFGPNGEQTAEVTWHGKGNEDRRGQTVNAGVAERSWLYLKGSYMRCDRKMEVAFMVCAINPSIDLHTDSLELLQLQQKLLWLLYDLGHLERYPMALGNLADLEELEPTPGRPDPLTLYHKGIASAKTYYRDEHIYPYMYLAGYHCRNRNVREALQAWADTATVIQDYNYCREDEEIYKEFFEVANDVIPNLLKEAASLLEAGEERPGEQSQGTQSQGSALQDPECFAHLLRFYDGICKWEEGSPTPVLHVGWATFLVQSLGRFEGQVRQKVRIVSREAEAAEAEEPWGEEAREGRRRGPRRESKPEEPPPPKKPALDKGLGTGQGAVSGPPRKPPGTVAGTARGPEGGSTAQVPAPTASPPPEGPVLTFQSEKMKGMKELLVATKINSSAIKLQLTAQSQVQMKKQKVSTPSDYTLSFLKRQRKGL
Description: Inhibitory activity against Menin-MLL binding (fluorescence polarization). The conditions noted are these: 150 nM His-Menin, 15 nM FITC-MLL, 25°C for 60 min. In a few lines:
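His-Menin (M1-L615, 150 nM) preincubated with compound 15 min at 25 °C in HEPES pH 7.5, 50 mM NaCl, 1 mM DTT, 0.01% BSA, then 15 nM FITC-MLL4-43 peptide added for 60 min at 25 °C. Fluorescence polarization read; IC50 from 4-parameter logistic fit, duplicates.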
For orientation: Fluorescence polarisation rises when a labelled molecule tumbles more slowly, as on binding a larger partner.

The mark [2] stands for this setting: fluorescence polarization, read-out: Menin-MLL IC50.

Turning to `Cc1nc(F)c2c(-c3ccc(F)cc3C(=O)N3CCOC[C@H]3C)cc(C3CN([C@H](CCCN4CCN(CCF)CC4)C(C)C)C3)cn12` [Example 361], the IC50 in test [1] (168 h) turned out to be 3.3 nM; at Menin-MLL (setting [2]), 5.2 nM. The corresponding values for `CCN(C(=O)c1cc(F)ccc1-c1cc(C2CN(C(CCO)C(C)C)C2)cn2c(C)ncc12)C(C)C` (stereo not drawn) [Example 455, N-ethyl-5-fluoro-2-{6-[1-(1-hydroxyl-4-methylpentan-3-yl)azacyclobutan-3-yl]-3-methylimidazo[1,5-a]pyridin-8-yl}-N-(isopropyl)benzamide] are 69 nM and 9.4 nM.

For the compound `CCN(C(=O)c1cc(F)ccc1-c1cc(C2CN([C@H](CCCN3C4CC3CN(C(C)=O)C4)C(C)C)C2)cn2c(C)ncc12)C(C)C` [Example 387], the figures for the half-maximal inhibitory concentration (IC50) (in test [1] (168 h); on Menin-MLL (setting [2])) were 8.9 nM and 2.5 nM, respectively.

With `CCN(C(=O)c1cc(F)ccc1-c1cc(C2CN([C@H](CCCN3CCC(C#N)(CO)CC3)C(C)C)C2)cn2c(C)ncc12)C(C)C` [Example 481], the IC50 in test [1] (MOLM-13, 168 h) stood at 5.5 nM; on Menin-MLL (Menin-MLL IC50, fluorescence polarization), 1.9 nM. With `CCN(C(=O)c1cc(F)ccc1-c1cc(C2CN([C@H](CN3CCS(=O)(=O)CC3)C(C)C)C2)cn2c(C)ncc12)C(C)C` [Example 441-1, 2-(6-{1-[(2S)-1-(1,1-dioxo-thiomorpholin-4-yl)-3-methylbutan-2-yl]azacyclobutan-3-yl}-3-methylimidazo[1,5-a]pyridin-8-yl)-N-ethyl-5-fluoro-N-(isopropyl)benzamide], the results for the 50% inhibitory concentration (IC50) (in test [1] (168 h); at Menin-MLL (setting [2])) were 75 nM and 11 nM, respectively. In the case of `CCN(C(=O)c1cc(F)ccc1-c1cc(C2CN([C@@H](CN3CCN(C)CC3)C(C)C)C2)cn2c(C)ncc12)C(C)C` [Example 403-2, N-ethyl-5-fluoro-2-(3-methyl-6-{1-[(2R)-3-methyl-1-(4-methylpiperazin-1-yl)butan-2-yl]azacyclobutan-3-yl}imidazo[1,5-a]pyridin-8-yl)-N-(isopropyl)benzamide], the half-maximal inhibitory concentration (IC50) in test [1] (168 h) stood at 38 nM; on Menin-MLL (setting [2]), 10 nM. The corresponding values for `CCN(C(=O)c1cc(F)ccc1-c1cc(C2CN([C@H](CN3CCN(CCO)CC3)C(C)C)C2)cc2c1cnn2C)C(C)C` [Example 416-2, N-ethyl-5-fluoro-2-(6-{1-[(2S)-1-[4-(2-hydroxyethyl)piperazin-1-yl]-3-methylbutan-2-yl]azacyclobutan-3-yl}-1-methyl-1H-indazol-4-yl)-N-(isopropyl)benzamide] are 69 nM and 10.6 nM.

Take `Cc1ncc2c(-c3ccc(F)cc3C(=O)N3CCOC[C@H]3C)cc(C3CN([C@H](CCCN4CCN(CCF)CC4)C(C)C)C3)cn12` [Example 363]: the 50% inhibitory concentration (IC50) in test [1] (168 h) stood at 20 nM; at Menin-MLL (setting [2]), 6.2 nM. Regarding `CCN(C(=O)c1cc(F)ccc1-c1cc(C2CN([C@H](CC[C@H]3COCCN3)C(C)C)C2)cn2c(C)ncc12)C(C)C` [Example 457-2, N-ethyl-5-fluoro-2-(3-methyl-6-{1-[(3R)-4-methyl-1-[(3S)-morpholin-3-yl]pentan-3-yl]azacyclobutan-3-yl}imidazo[1,5-a]pyridin-8-yl)-N-(isopropyl)benzamide], the half-inhibitory concentration (IC50) in test [1] (168 h) stood at 5 nM; on Menin-MLL (setting [2]), 2.6 nM. Take `CCN(C(=O)c1cc(F)ccc1-c1cc(C2CN([C@H](CCCN3CCOC[C@@H]3CO)C(C)C)C2)cn2c(C)ncc12)C(C)C` [Example 452]: the figures for the IC50 (in test [1] (168 h); on Menin-MLL (setting [2])) were 39 nM and 5.3 nM, respectively. Taken in the same sequence, the figures for `Cc1ncc2c(-c3ccc(F)cc3C(=O)N(C(C)C)C(C)C)cc(C3CN([C@H](CCCN4CCN(CCO)CC4)C(C)C)C3)cn12` [Example 463, 5-fluoro-2-(6-{1-[(3R)-6-[4-(2-hydroxylethyl)piperazin-1-yl]-2-methylhexan-3-yl]azacyclobutan-3-yl}-3-methyl-imidazo[1,5-a]pyridin-8-yl)-N,N-di(isopropyl)benzamide] were 4.3 nM and 2.3 nM. The corresponding values for `CCN(C(=O)c1cc(F)ccc1-c1cc(C2CN([C@H](CCCN3CCN(C4(C(N)=O)COC4)CC3)C(C)C)C2)cn2c(C)ncc12)C(C)C` [Example 475, 3-{4-[(4R)-4-[3-(8-{2-[ethyl(isopropyl)aminoformyl]-4-fluorophenyl}-3-methylimidazo[1,5-a]pyridin-6-yl)azacyclobutan-1-yl]-5-methylhexyl]piperazin-1-yl}oxacyclobutan-3-formamide] are 25 nM and 1 nM. In the case of `CCN(C(=O)c1cc(F)ccc1-c1cc(C2CN([C@H](CCCN3CC4(C3)CN(C(C)=O)C4)C(C)C)C2)cn2c(C)ncc12)C(C)C` [Example 393], the half-maximal inhibitory concentration (IC50) is 16 nM in test [1] (168 h) and 2.2 nM on Menin-MLL (setting [2]). The corresponding values for `CCN(C(=O)c1cc(F)ccc1-c1cc(C2CN([C@H](CCCN3CCN(CCOC)CC3)C(C)C)C2)cn2c(C)ncc12)C(C)C` [Example 497] are 41 nM and 0.9 nM. The corresponding values for `Cc1nc(F)c2c(-c3ccc(F)cc3C(=O)N3CCOC[C@H]3C)cc(C3CN([C@H](CCCN4CC5(COC5)C4)C(C)C)C3)cn12` [Example 369] are 3 nM and 3.8 nM. Turning to `CCN(C(=O)c1cc(F)ccc1-c1cc(C2CN([C@H](CCCN3CCC(OCCO)CC3)C(C)C)C2)cc2c1cnn2C)C(C)C` [Example 401-2], the half-maximal inhibitory concentration (IC50) came out at 29 nM in test [1] (168 h) and 3.7 nM on Menin-MLL (setting [2]). The corresponding values for `CCN(C(=O)c1cc(F)ccc1-c1cc(C2CN([C@H](CCCN3CCC(S(C)(=O)=O)CC3)C(C)C)C2)cn2c(C)ncc12)C(C)C` [Example 404] are 8.1 nM and 2.3 nM. The corresponding values for `CCN(C(=O)c1cc(F)ccc1-c1cc(C2CN([C@H](CN3CCN(C[C@H](O)CO)CC3)C(C)C)C2)cn2c(C)ncc12)C(C)C` [Example 428] are 52 nM and 3.7 nM. `CCN(C(=O)c1cc(F)ccc1-c1cc(CC2CN([C@H](CCCN3CCN(CCO)CC3)C(C)C)C2)n2c(C)cncc12)C(C)C` [Example 470, N-ethyl-5-fluoro-2-[6-({1-[(3R)-6-[4-(2-hydroxylethyl)piperazin-1-yl]-2-methylhexan-3-yl]azacyclobutan-3-yl}methyl)-4-methylpyrrolo[1,2-a]pyrazin-8-yl]-N-(isopropyl)benzamide]: the IC50 was found to be 3.8 nM in test [1] (168 h) and 0.9 nM at Menin-MLL (setting [2]).

In the case of `CCN1CCN(CCC[C@@H](C(C)C)N2CC(c3cc(-c4ccc(F)cc4C(=O)N(CC)C(C)C)c4cnn(C)c4c3)C2)CC1` [Example 394-1, N-ethyl-2-(6-{1-[(3S)-6-(4-ethylpiperazin-1-yl)-2-methylhexan-3-yl]azacyclobutan-3-yl}-1-methyl-1H-indazol-4-yl)-5-fluoro-N-(isopropyl)benzamide], the IC50 on Menin-MLL (setting [2]) was determined as 188 nM. In the case of `CCN(C(=O)c1cc(F)ccc1-c1cc(C2CN(C(CN3CCC(OC)CC3)C(C)C)C2)cn2c(C)ncc12)C(C)C` (stereo not drawn) [Example 444], the IC50 at Menin-MLL (setting [2]) was determined as 45 nM. `CCN(C(=O)c1cc(F)ccc1-c1cc(C2CN([C@@H](CCCN3CCN(C(C)=O)CC3)C(C)C)C2)cn2c(C)nc(F)c12)C(C)C` [Example 313]: the half-maximal inhibitory concentration (IC50) at Menin-MLL (setting [2]) amounted to 48 nM.

Consider `CCN(C(=O)c1cc(F)ccc1-c1cc(C2CCN(C[C@H]3CC[C@H](N4CCOC4=O)CC3)C2)nc2c1cnn2C)C(C)C` (stereo partly drawn) [Example 28], for which the concentration for half-maximal inhibition (IC50) on Menin-MLL (setting [2]) is 118 nM.
